Reference: patent US20180318383A1, “PEPTIDE HAVING NEURONAL LOSS PREVENTION AND REGENERATION EFFECTS, AND COMPOSITION CONTAINING SAME” (GEMVAX & KAEL CO., LTD., priority 2015, published 2018)

Test system: AD transgenic mice (3XTg-AD)
Assay: Passive avoidance test
Type: in vivo
Procedure: To test the efficacy of PEP1 on AD, AD transgenic mice (3XTg-AD) were purchased from Jackson Laboratory. Genetic characteristics of the transgenic mice are as follows: B6; 129-Psen1tm1Mpm Tg(APPSwe, tauP301L)1Lfa/Mmjax. […] One week after mice were confirmed as pregnant, new mice were delivered and weaned for 3 weeks. Two weeks later, mature mice were obtained.
During the preliminary breeding and the entire period of the experiment, a temperature was maintained at 23±2° C. and a relative humidity was maintained at 60±10%, and then the mice were raised under a 12-hour dark/light cycle. Experimental animals were divided into five groups, and each group included 10 animals. The divided experimental groups are as follows. […]
The PEP1, physiological saline, donepezil and […], and then two months after the injection, cognitive/memory behavior tests (passive avoidance test and Y maze test) were performed to examine a degree of improvement in cognitive function and memory function. After the brain was extracted to separate the hippocampus, the amounts of amyloid beta in the hippocampus and the whole brain, and the amounts of an amyloid beta oligomer and NFT generated by tau hyperphosphorylation were determined by western blotting and immunostaining. […]

EARPALLTSRLRFIPK (homo sapiens) [PEP1, hTERT-derived peptide consisting of 16 amino acids, telomerase location [611-626]]
avoidance ability (passive avoidance test) (3XTg-AD mice, treated from age 12 months, tested two months after injection, vs control and Donepezil): excellent avoidance ability | time and frequency of staying in the bright room (passive avoidance test) (severe AD models, 20-month-old or older 3XTg-AD mice, PEP1 1 mg/kg s.c., vs physiological saline): increased
